According to EP0490193A1, “Complex of an actif enantiomer of ibuprofen with cyclodextrin” (priority 1990, dated 1992):

How the values were obtained:
[1] = nach Ibuprofengaben; cited from earlier work
[2] = Ratten; cited from earlier work
[3] = Dissolution properties in water at 37° C (Tabelle I); format: physicochemical; details: Wasser
[4] = In vitro diffusion study, concentration in the receptor cell, buffer pH 1,2, 37° C (Tabelle II); format: in vitro ADME; details: Pufferlösung pH = 1,2, 37° C
Excerpt: Um die gute biologische Verfügbarkeit des S-(+)-Ibuprofens aus der komplexierten Form zu testen, wurden in vitro-Diffusionsversuche durchgeführt. Die Diffusion des S-(+)-Ibuprofens aus dem β-Cyclodextrin-Komplex war schneller, die S-(+)-Ibuprofen-Menge in der Rezeptorzelle betrug das 1,6fache bei pH = 1,2 nach 6 Stunden im Vergleich zum freien Arzneimittel (Tabelle II).

[5] = synoviale Flüssigkeit, Patienten mit Arthritis; cited from earlier work

## CC(C)Cc1ccc(C(C)C(=O)O)cc1 (racemic) [Ibuprofen]
[1]
  aus dem Urin zurückgewonnen: 5,0%
[2]
  Absorptionsgrad: gleich

## CC(C)Cc1ccc([C@H](C)C(=O)O)cc1 [S-(+)-Ibuprofen, S-(+)-2-(-4-Isobutylphenyl)propionsäure]
[3]; Zeit 1 min
  gelöstes Ibuprofen: 0,04 mg/ml
[3]; Zeit 5 min
  gelöstes Ibuprofen: 0,10 mg/ml
[3]; Zeit 10 min
  gelöstes Ibuprofen: 0,12 mg/ml
[3]; Zeit 15 min
  gelöstes Ibuprofen: 0,13 mg/ml
[3]; Zeit 30 min
  gelöstes Ibuprofen: 0,12 mg/ml
[3]; Zeit 60 min
  gelöstes Ibuprofen: 0,12 mg/ml
[4]; Zeit 90 min
  Konzentration von S-(+)-Ibuprofen in der Rezeptorzelle: 0,022 mg/ml
[4]; Zeit 120 min
  Konzentration von S-(+)-Ibuprofen in der Rezeptorzelle: 0,027 mg/ml
[4]; Zeit 180 min
  Konzentration von S-(+)-Ibuprofen in der Rezeptorzelle: 0,038 mg/ml
[4]; Zeit 240 min
  Konzentration von S-(+)-Ibuprofen in der Rezeptorzelle: 0,047 mg/ml
[4]; Zeit 360 min
  Konzentration von S-(+)-Ibuprofen in der Rezeptorzelle: 0,061 mg/ml
[5]
  Konzentrationsverhältnis S zu R: 2,1
